Laboratory results published in patent publication US12371454B2, “Cyclic peptide compound having Kras inhibitory action” (priority 2019, dated 2025).
Starred links: 1 amine or outer side, 2 acyl side, 3 side chain; linkers in the order of their positions; H or OH if unused. Positions of bridges follow the written chain, without caps; N, C: chain ends. Non-standard residues stand in square brackets, D forms with d. Residues, ends and D or L forms follow the SMILES beside them. *: point of attachment. hPhe(3-Cl-4-CF3) = N[C@@H](CCc1ccc(C(F)(F)F)c(Cl)c1)C(=O)O; hPhe(3-OMe-4-CF3) = COc1cc(CC[C@H](N)C(=O)O)ccc1C(F)(F)F; X67 = O=C([C@H](CCc1cc(F)c(F)cc1F)N[*:1])[*:2]; NMePhe(4-Cl) = CN[C@@H](Cc1ccc(Cl)cc1)C(=O)O; NMePhe(4-Me) = CN[C@@H](Cc1ccc(C)cc1)C(=O)O; NMePhe(2-Cl) = CN[C@@H](Cc1ccccc1Cl)C(=O)O; NMedβ3hAla = C[C@H](CC(=O)[*:2])N(C)[*:1]; NMeGly(cPent) = CN[C@H](C(=O)O)C1CCCC1; Phe(3-I) = N[C@@H](Cc1cccc(I)c1)C(=O)O; X70 = CC(C)(O)COCCN(CC(=O)[*:2])[*:1]; X84 = O=C(CN(CCc1ccncc1)[*:1])[*:2]; NMeCha = CN[C@@H](CC1CCCCC1)C(=O)O; NMeChg = CN[C@H](C(=O)O)C1CCCCC1; NMeF = CN[C@@H](Cc1ccccc1)C(=O)O; NMeI = CC[C@H](C)[C@H](NC)C(=O)O; NMeE = CN[C@@H](CCC(=O)O)C(=O)O; NMeD = CN[C@@H](CC(=O)O)C(=O)O; Benzyl(4-Cl) = Clc1ccc(C*)cc1; NMeL = CN[C@@H](CC(C)C)C(=O)O; NMeV = CN[C@H](C(=O)O)C(C)C; d(β3hA) = C[C@@H](N)CC(=O)O; NMeS = CN[C@@H](CO)C(=O)O; NMeA = CN[C@@H](C)C(=O)O; Nle = CCCC[C@H](N)C(=O)O; Piperidide = C1CCN(*)CC1; dNMeA = CN[C@H](C)C(=O)O; Ac5c = NC1(C(=O)O)CCCC1; Aze = O=C(O)[C@@H]1CCN1; X76 = Clc1cccc(C*)c1; X27 = Clc1ccccc1C*; NEtG = CCNCC(=O)O; Sar = CNCC(=O)O; Propyl = CCC*

Target: T1, Kras and SOS1 (biotin-tagged human Kras loaded with GDP, His-tagged human SOS1) (Homo sapiens, UniProt P01116, G12D)
T1 construct: made in house; host or cells: E. coli (stated for Kras only)
Test: Protein-protein interaction inhibition between Kras and SOS1 (KrasGl2D-SOS PPI) using AlphaScreen
Type: binding
Settings: AlphaScreen; biotin-tagged human Kras loaded with GDP, His-tagged human SOS1; read-out: KRAS G12D-SOS PPI IC50
In short: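 Kras was produced in E. coli, purified, then loaded with GDP. It was paired via streptavidin acceptor beads with His-SOS1 held on nickel donor beads, and proximity signal at 520-620 nm was read after 680 nm illumination.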

T1 sequence (P01116 1-188 isoform P01116-2 G12D): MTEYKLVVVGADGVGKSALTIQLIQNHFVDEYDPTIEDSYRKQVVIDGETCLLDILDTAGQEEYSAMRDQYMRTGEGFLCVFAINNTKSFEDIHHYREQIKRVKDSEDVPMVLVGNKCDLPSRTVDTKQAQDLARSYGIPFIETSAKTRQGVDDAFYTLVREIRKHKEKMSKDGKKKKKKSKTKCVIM

| SMILES | IC50 [nM] |
| --- | --- |
| CC[C@H](C)[C@@H]1NC(=O)[C@H](C)N(C)C(=O)C[C@@H](C)NC(=O)[C@H](C(C)C)N(C)C(=O)C2(CCCC2)NC(=O)[C@@H]2CCCN2C(=O)[C@H](CCc2ccc(C(F)(F)F)c(Cl)c2)NC(=O)[C@@H](C)N(C)C(=O)[C@H](CC2CCCCC2)N(C)C(=O)CN(C)C(=O)[C@@H]2CCN2C1=O [Compound 2010] (cyclo([Ac5c][NMeV][d(β3hA)][NMeA]I[Aze][Sar][NMeCha][dNMeA][hPhe(3-Cl-4-CF3)]P)) | 220 |
| CC[C@H](C)[C@@H]1NC(=O)[C@H](C)N(C)C(=O)C[C@@H](C(=O)N(C)C)N(C)C(=O)[C@H]([C@@H](C)CC)N(C)C(=O)C2(CCCC2)NC(=O)[C@H](Cc2ccccc2Cl)N(C)C(=O)[C@H](CCc2ccc(C(F)(F)F)c(Cl)c2)NC(=O)CN(C)C(=O)[C@H](Cc2ccc(C)cc2)N(C)C(=O)[C@@H]2CCN2C(=O)[C@H](C)N(C)C1=O [Compound 2011] ([NMeA]I[NMeA][Aze][NMePhe(4-Me)][Sar][hPhe(3-Cl-4-CF3)][NMePhe(2-Cl)][Ac5c][NMeI][NMeD]-NMe2; lactam N-11) | 17 |
| CC[C@H](C)[C@@H]1NC(=O)[C@H](C)N(C)C(=O)C[C@@H](C)NC(=O)[C@H](C(C)C)N(C)C(=O)C2(CCCC2)NC(=O)[C@@H]2CCCN2C(=O)[C@H](CCc2ccc(C(F)(F)F)c(Cl)c2)NC(=O)[C@@H](C)N(C)C(=O)[C@H](CC2CCCCC2)N(C)C(=O)[C@@H]2CCCN2C(=O)CN(CC)C1=O [Compound 2014] (cyclo([Ac5c][NMeV][d(β3hA)][NMeA]I[NEtG]P[NMeCha][dNMeA][hPhe(3-Cl-4-CF3)]P)) | 340 |
| CC[C@H](C)[C@@H]1NC(=O)[C@H](C)N(C)C(=O)C[C@@H](C)NC(=O)[C@H](C(C)C)N(C)C(=O)C2(CCCC2)NC(=O)[C@@H]2CCCN2C(=O)[C@H](CCc2ccc(C(F)(F)F)c(Cl)c2)NC(=O)[C@@H](C)N(C)C(=O)[C@H](CC2CCCCC2)N(C)C(=O)[C@@H]2CCN2C(=O)[C@H](CC2CCCCC2)N(C)C1=O [Compound 2015] (cyclo([Ac5c][NMeV][d(β3hA)][NMeA]I[NMeCha][Aze][NMeCha][dNMeA][hPhe(3-Cl-4-CF3)]P)) | 260 |
| CC[C@H](C)[C@@H]1NC(=O)[C@H](C)N(C)C(=O)C[C@@H](C)NC(=O)[C@H](C(C)C)N(C)C(=O)C2(CCCC2)NC(=O)[C@@H]2CCCN2C(=O)[C@H](CCc2ccc(C(F)(F)F)c(Cl)c2)NC(=O)[C@@H](C)N(C)C(=O)[C@H](CC2CCCCC2)N(C)C(=O)[C@@H]2CCN2C(=O)[C@H](Cc2ccccc2)N(C)C1=O [Compound 2019] (cyclo([Ac5c][NMeV][d(β3hA)][NMeA]I[NMeF][Aze][NMeCha][dNMeA][hPhe(3-Cl-4-CF3)]P)) | 110 |
| CC[C@H](C)[C@@H]1NC(=O)[C@H](CC(C)C)N(C)C(=O)C[C@@H](C(=O)N(C)C)N(C)C(=O)[C@H](C2CCCC2)N(C)C(=O)C2(CCCC2)NC(=O)CN(CCOCC(C)(C)O)C(=O)[C@H](CCc2ccc(C(F)(F)F)c(Cl)c2)NC(=O)CN(C)C(=O)[C@H](CC2CCCCC2)N(C)C(=O)[C@@H]2CCN2C(=O)[C@H](C)N(C)C1=O [Compound 2023] ([NMeL]I[NMeA][Aze][NMeCha][Sar][hPhe(3-Cl-4-CF3)][X70][Ac5c][NMeGly(cPent)][NMeD]-NMe2; lactam N-11) | 1.7 |
| CCCOC[C@H]1C(=O)N(C)CC(=O)N[C@@H](CCc2ccc(C(F)(F)F)c(Cl)c2)C(=O)N(CCOCC(C)(C)O)CC(=O)NC2(CCCC2)C(=O)N(C)[C@@H]([C@@H](C)CC)C(=O)N(C)[C@H](C)CC(=O)N(C)[C@@H](CC(C)C)C(=O)N[C@@H]([C@@H](C)CC)C(=O)N(C)[C@@H](C)C(=O)N2CC[C@H]2C(=O)N1C [Compound 2027] (cyclo([Ac5c][NMeI][NMedβ3hAla][NMeL]I[NMeA][Aze][NMeS](Propyl)[Sar][hPhe(3-Cl-4-CF3)][X70])) | 110 |
| CC[C@H](C)[C@@H]1NC(=O)[C@H](CC(C)C)N(C)C(=O)C[C@@H](C(=O)N(C)C)N(C)C(=O)[C@H]([C@@H](C)CC)N(C)C(=O)C2(CCCC2)NC(=O)CN(CCOCC(C)(C)O)C(=O)[C@H](CCc2ccc(C(F)(F)F)c(Cl)c2)NC(=O)CN(C)C(=O)[C@H](CC2CCCCC2)N(C)C(=O)[C@@H]2CCN2C(=O)[C@H](C)N(C)C1=O [Compound 2028] ([NMeL]I[NMeA][Aze][NMeCha][Sar][hPhe(3-Cl-4-CF3)][X70][Ac5c][NMeI][NMeD]-NMe2; lactam N-11) | 11 |
| CC[C@H](C)[C@@H]1NC(=O)[C@H](CC(C)C)N(C)C(=O)C[C@@H](C(=O)N2CCCCC2)N(C)C(=O)[C@H](C2CCCCC2)N(C)C(=O)C2(CCCC2)NC(=O)CN(CCc2ccncc2)C(=O)[C@H](CCc2ccc(C(F)(F)F)c(Cl)c2)NC(=O)CN(C)C(=O)[C@H](CC2CCCCC2)N(C)C(=O)CN(C)C(=O)CN(C)C1=O [Compound 2029] ([NMeL]I[Sar][Sar][NMeCha][Sar][hPhe(3-Cl-4-CF3)][X84][Ac5c][NMeChg][NMeD]-Piperidide; lactam N-11) | 0.83 |
| CC[C@H](C)[C@@H]1NC(=O)[C@H](CC(C)C)N(C)C(=O)C[C@@H](C(=O)N(C)C)N(C)C(=O)[C@H]([C@@H](C)CC)N(C)C(=O)C2(CCCC2)NC(=O)CN(CCOCC(C)(C)O)C(=O)[C@H](CCc2ccc(C(F)(F)F)c(Cl)c2)NC(=O)CN(C)C(=O)[C@H](Cc2ccc(C)cc2)N(C)C(=O)[C@@H]2CCN2C(=O)[C@H](C)N(C)C1=O [Compound 2034] ([NMeL]I[NMeA][Aze][NMePhe(4-Me)][Sar][hPhe(3-Cl-4-CF3)][X70][Ac5c][NMeI][NMeD]-NMe2; lactam N-11) | 2 |
| CC[C@H](C)[C@@H]1NC(=O)[C@H](C)N(C)C(=O)C[C@@H](C(=O)N2CCCCC2)N(C)C(=O)[C@H](C2CCCCC2)N(C)C(=O)C2(CCCC2)NC(=O)[C@@H]2CCCN2C(=O)[C@H](COc2ccc(Cl)cc2)NC(=O)CN(C)C(=O)[C@H](CC2CCCCC2)N(C)C(=O)CN(C)C(=O)CN(C)C1=O [Compound 2042, (3S,9S,18S,21S,25S,28S,34S)-3-[(4-chlorophenoxy)methyl]-28-cyclohexyl-9-(cyclohexylmethyl)-7,10,13,16,21,22,26,29-octamethyl-18-[(1S)-1-methylpropyl]-25-(piperidine-1-carbonyl)spiro[1,4,7,10,13,16,19,22,26,29,32-undecazabicyclo[32.3.0]heptatriacontane-31,1′-cyclopentane]-2,5,8,11,14,17,20,23,27,30,33-undecone] | 70 |
| CC[C@H](C)[C@@H]1NC(=O)[C@H](C)N(C)C(=O)C[C@@H](C(=O)N2CCCCC2)N(C)C(=O)[C@H](C2CCCCC2)N(C)C(=O)C2(CCCC2)NC(=O)[C@@H]2CCCN2C(=O)[C@H](COCc2ccccc2Cl)NC(=O)CN(C)C(=O)[C@H](CC2CCCCC2)N(C)C(=O)CN(C)C(=O)CN(C)C1=O [Compound 2043] ([NMeA]I[Sar][Sar][NMeCha][Sar]S(X27)P[Ac5c][NMeChg][NMeD]-Piperidide; lactam N-11) | 12 |
| CC[C@H](C)[C@@H]1NC(=O)[C@H](C)N(C)C(=O)C[C@@H](C(=O)N2CCCCC2)N(C)C(=O)[C@H](C2CCCCC2)N(C)C(=O)C2(CCCC2)NC(=O)[C@@H]2CCCN2C(=O)[C@H](COCc2ccc(Cl)cc2)NC(=O)CN(C)C(=O)[C@H](CC2CCCCC2)N(C)C(=O)CN(C)C(=O)CN(C)C1=O [Compound 2044] ([NMeA]I[Sar][Sar][NMeCha][Sar]S(Benzyl(4-Cl))P[Ac5c][NMeChg][NMeD]-Piperidide; lactam N-11) | 7.9 |
| CC[C@H](C)[C@@H]1NC(=O)[C@H](C)N(C)C(=O)C[C@@H](C(=O)N2CCCCC2)N(C)C(=O)[C@H](C2CCCCC2)N(C)C(=O)C2(CCCC2)NC(=O)[C@@H]2CCCN2C(=O)[C@H](COCc2cccc(Cl)c2)NC(=O)CN(C)C(=O)[C@H](CC2CCCCC2)N(C)C(=O)CN(C)C(=O)CN(C)C1=O [Compound 2045] ([NMeA]I[Sar][Sar][NMeCha][Sar]S(X76)P[Ac5c][NMeChg][NMeD]-Piperidide; lactam N-11) | 15 |
| CC[C@H](C)[C@@H]1NC(=O)[C@H](CC(C)C)N(C)C(=O)C[C@@H](C(=O)N2CCCCC2)N(C)C(=O)[C@H](C2CCCC2)N(C)C(=O)C2(CCCC2)NC(=O)[C@@H]2CCCN2C(=O)[C@H](CCc2ccc(C(F)(F)F)c(OC)c2)NC(=O)CN(C)C(=O)[C@H](CC2CCCCC2)N(C)C(=O)[C@@H]2CCN2C(=O)[C@H](C)N(C)C1=O [Compound 2080] ([NMeL]I[NMeA][Aze][NMeCha][Sar][hPhe(3-OMe-4-CF3)]P[Ac5c][NMeGly(cPent)][NMeD]-Piperidide; lactam N-11) | 0.33 |
| CC[C@H](C)[C@@H]1NC(=O)[C@H](C)N(C)C(=O)C[C@@H](C)NC(=O)[C@H](CC(C)C)N(C)C(=O)[C@H](Cc2ccccc2)N(C)C(=O)[C@H](CC(C)C)NC(=O)[C@H](CCc2cc(F)c(F)cc2F)NC(=O)CN(C)C(=O)[C@H](Cc2ccc(Cl)cc2)N(C)C(=O)CN(C)C(=O)CN(C)C1=O [Compound 2087] (cyclo(I[Sar][Sar][NMePhe(4-Cl)][Sar][X67]L[NMeF][NMeL][d(β3hA)][NMeA])) | 130 |
| CCCC[C@@H]1NC(=O)[C@H](Cc2cccc(I)c2)NC(=O)CN(C)C(=O)[C@H](Cc2ccc(C)cc2)N(C)C(=O)CN(C)C(=O)CN(C)C(=O)[C@H]([C@@H](C)CC)NC(=O)[C@H](CC(C)C)N(C)C(=O)C[C@@H](C(=O)N2CCCCC2)N(C)C(=O)[C@H](CC(C)C)NC(=O)[C@H](CCC(=O)N(C)C)N(C)C1=O [Compound 2100, 3-[(3S,6S,9S,12S,18S,27S,30S,34S)-9-butyl-12-[(3-iodophenyl)methyl]-3,30-diisobutyl-1,7,16,19,22,25,31-heptamethyl-27-[(1S)-1-methylpropyl]-2,5,8,11,14,17,20,23,26,29,32-undecaoxo-34-(piperidine-1-carbonyl)-18-(p-tolylmethyl)-1,4,7,10,13,16,19,22,25,28,31-undecazacyclotetratriacont-6-yl]-N,N-dimethyl-propanamide] ([NMeL]I[Sar][Sar][NMePhe(4-Me)][Sar][Phe(3-I)][Nle][NMeE](NMe2)L[NMeD]-Piperidide; lactam N-11) | 15 |
